What was measured:
[1] = test system: T. b. brucei Lister427 bloodstream form parasites; experiment: T. b. brucei growth inhibition assay (CellTiter-Glo, 48 hours); type: cell-based; settings: Trypanosoma brucei
Excerpt: Bloodstream form of T. b. brucei Lister427 strain was obtained from the Genomics Institute of the Novartis Research Foundation. This strain was used for carrying out growth inhibition and kill kinetics assays. T. b. gambiense STIB930 and T. b. rhodesiense STIB900 were obtained from Swiss TPH, were used for carrying out the growth inhibition assays.
Bloodstream form T. b. brucei Lister 427 parasites were continuously passaged in HMI-9 medium formulated from IMDM medium (Invitrogen), 10% heat-inactivated fetal bovine serum (FBS), 10% Serum Plus medium supplement (SAFC Biosciences), 1 mM hypoxanthine (Sigma-Aldrich), 50 μM bathocuproine disulfonic acid (Sigma-Aldrich), 1.5 mM cysteine (Sigma-Aldrich), 1 mM pyruvic acid (Sigma-Aldrich), 39 μg/mL thymidine (Sigma-Aldrich), and 14 μL/L beta-mercapthoethanol (Sigma-Aldrich); all concentrations of added components refer to that in complete HMI-9 medium. The parasites were cultured in 10 mL of HMI-9 medium in T75 CELL-STAR tissue culture flasks at 37° C./5% CO2.
To determine compound growth inhibitory potency on T. b. brucei Lister427 bloodstream form parasites, 200 nL of 10-point, 3 fold serially diluted compounds in DMSO were transferred to the wells of white, solid bottom 384-well plates (Greiner Bio-One) by either Echo 555 acoustic liquid handling system or Mosquito. Then, 1×10^4 of T. b. brucei parasites in 40 μL of HMI-9 medium were added to each well, and the plates were incubated for 48 hours at 37° C. in 5% CO2 incubators. Parasite numbers in individual plate wells were determined through quantification of intracellular ATP amount. The CellTiter-Glo luminescent cell viability reagent (Promega) was added to plate wells, and ATP-dependent luminescence signal was measured on Tecan M1000 plate Reader after 30 min incubation. Luminescence values in wells with compounds were divided by the average luminescence value of the plate DMSO controls, and used for calculation of compound IC50 values.

[2] = test system: intracellular T. cruzi amastigotes; experiment: T. cruzi amastigote growth inhibition assay (NIH 3T3 host cells, β-galactosidase readout); type: cell-based; settings: Trypanosoma cruzi, NIH3T3, read-out: (c) T.c.* IC50
Description: NIH 3T3 fibroblast cells (ATCC) were maintained in RPMI-1640 medium (Life Technologies) supplemented with 10% heat-inactivated fetal bovine serum and 100 IU penicillin/100 μg/ml streptomycin at 37° C./5% CO2. T. cruzi Tulahuen parasites constitutively expressing E. coli β-galactosidase were maintained in tissue culture as an infection in NIH 3T3 fibroblast cells. Briefly, 2×10^7 T. cruzi trypomastigotes were used to infect 6×10^5 NIH 3T3 cells growing in T75 CELLSTAR tissue culture flasks and cultured at 37° C./5% CO2 until proliferating intracellular parasites lysed host 3T3 cells and were released into the culture medium (typically 6-7 days). During the infection, the tissue culture medium was changed every two days. Number of T. cruzi trypomastigotes present in 1 ml of medium was determined using a haemocytometer.
To determine compound potency on intracellular T. cruzi amastigotes, NIH 3T3 cells were re-suspended in phenol red-free RPMI-1640 medium containing 3% heat-inactivated fetal bovine serum and 100 IU penicillin/100 μg/ml streptomycin, seeded at 1,000 cells/well (40 μl) in white, clear bottom 384-well plates (Greiner Bio-One), and incubated overnight at 37° C./5% CO2. The following day, 100 nl of each compound in DMSO were transferred to individual plate wells by Echo 555 acoustic liquid handling system. After one hour incubation, 1×10^6 of tissue culture-derived T. cruzi trypomastigotes, in 10 μl of phenol red-free RPMI-1640 medium supplemented with 3% heat-inactivated fetal bovine serum and 100 IU penicillin/100 μg/ml streptomycin were added to each well. Plates were then incubated for 6 days at 37° C./5% CO2. Intracellular T. cruzi parasites were quantified by measuring the activity of parasite-expressed β-galactosidase. Ten microliters of a chromogenic β-galactosidase substrate solution (0.6 mM chlorophenol red-β-D-galactopyranoside/0.6% NP-40 in PBS; both reagents from Calbiochem) were added to each well and incubated for 2 h at room temperature. After incubation, absorption was measured at 570 nm on SpectraMax M2 plate reader (Molecular Devices). Measured absorbance values in wells with compounds were divided by the average absorbance value of the plate DMSO controls, and used for calculation of compound EC50 values as described above.

Compound | IC50 [1] [nM] | IC50 [2] [nM]
N#Cc1ncn(CC(=O)N2Cc3ccc(-c4ccc(F)cc4N4CCCC4)cc3C2)n1 [Example 11, 1-(2-(5-(4-fluoro-2-(pyrrolidin-1-yl)phenyl)isoindolin-2-yl)-2-oxoethyl)-1H-1,2,4-triazole-3-carbonitrile] | 100 to 1000 | 100 to 1000
N#Cc1ncn(CC(=O)N2Cc3ccc(-c4c(F)cccc4C(F)(F)F)cc3C2)n1 [Example 12, 1-(2-(5-(2-fluoro-6-(trifluoromethyl)phenyl)isoindolin-2-yl)-2-oxoethyl)-1H-1,2,4-triazole-3-carbonitrile] | < 100 | < 100
Cc1ncccc1-c1ccc2c(c1)CN(C(=O)Cn1cnc(C#N)n1)C2 [Example 13, 1-(2-(5-(2-methylpyridin-3-yl)isoindolin-2-yl)-2-oxoethyl)-1H-1,2,4-triazole-3-carbonitrile] | 100 to 1000 | 100 to 1000
COc1ccc(-c2ccc3c(c2)CN(C(=O)Cn2cnc(C#N)n2)C3)c(C(F)(F)F)n1 [Example 14, 1-(2-(5-(6-methoxy-2-(trifluoromethyl)pyridin-3-yl)isoindolin-2-yl)-2-oxoethyl)-1H-1,2,4-triazole-3-carbonitrile] | 100 to 1000 | < 100
N#Cc1ncn(CC(=O)N2Cc3ccc(-c4c(F)ccc(F)c4Cl)cc3C2)n1 [Example 15, 1-(2-(5-(2-chloro-3,6-difluorophenyl)isoindolin-2-yl)-2-oxoethyl)-1H-1,2,4-triazole-3-carbonitrile] | < 100 | < 100
N#Cc1ncn(CC(=O)N2Cc3ccc(-c4c(F)cncc4C(F)(F)F)cc3C2)n1 [Example 16, 1-(2-(5-(3-fluoro-5-(trifluoromethyl)pyridin-4-yl)isoindolin-2-yl)-2-oxoethyl)-1H-1,2,4-triazole-3-carbonitrile] | 100 to 1000 | < 100
N#Cc1ncn(CC(=O)N2Cc3ccc(-c4cccnc4OC(F)(F)F)cc3C2)n1 [Example 17, 1-(2-oxo-2-(5-(2-(trifluoromethoxy)pyridin-3-yl)isoindolin-2-yl)ethyl)-1H-1,2,4-triazole-3-carbonitrile] | 100 to 1000 | 100 to 1000
N#Cc1ncn(CC(=O)N2Cc3ccc(-c4c(Cl)ccnc4C(F)(F)F)cc3C2)n1 [Example 18, 1-(2-(5-(4-chloro-2-(trifluoromethyl)pyridin-3-yl)isoindolin-2-yl)-2-oxoethyl)-1H-1,2,4-triazole-3-carbonitrile] | 100 to 1000 | < 100
N#Cc1ncn(CC(=O)N2Cc3ccc(-c4cccnc4CC(F)(F)F)cc3C2)n1 [Example 19, 1-(2-oxo-2-(5-(2-(2,2,2-trifluoroethyl)pyridin-3-yl)isoindolin-2-yl)ethyl)-1H-1,2,4-triazole-3-carbonitrile] | 100 to 1000 | 100 to 1000
N#Cc1ncn(CC(=O)N2Cc3ccc(-c4c(F)ccnc4C(F)(F)F)cc3C2)n1 [Example 20, 1-(2-(5-(4-fluoro-2-(trifluoromethyl)pyridin-3-yl)isoindolin-2-yl)-2-oxoethyl)-1H-1,2,4-triazole-3-carbonitrile] | < 100 | < 100
N#Cc1ncn(CC(=O)N2Cc3ccc(-c4c(F)ccnc4Cl)cc3C2)n1 [Example 21, 1-(2-(5-(2-chloro-4-fluoropyridin-3-yl)isoindolin-2-yl)-2-oxoethyl)-1H-1,2,4-triazole-3-carbonitrile] | 100 to 1000 | < 100
N#Cc1ncn(CC(=O)N2Cc3ccc(-c4c(C(F)(F)F)ccnc4F)cc3C2)n1 [Example 22, 1-(2-(5-(2-fluoro-4-(trifluoromethyl)pyridin-3-yl)isoindolin-2-yl)-2-oxoethyl)-1H-1,2,4-triazole-3-carbonitrile] | 100 to 1000 | < 100
N#Cc1ncn(CC(=O)N2Cc3ccc(-c4c(F)cncc4Cl)cc3C2)n1 [Example 23, 1-(2-(5-(3-chloro-5-fluoropyridin-4-yl)isoindolin-2-yl)-2-oxoethyl)-1H-1,2,4-triazole-3-carbonitrile] | < 100 | 100 to 1000
N#Cc1ncn(CC(=O)N2Cc3ccc(-c4c(Cl)ccnc4F)cc3C2)n1 [Example 24, 1-(2-(5-(4-chloro-2-fluoropyridin-3-yl)isoindolin-2-yl)-2-oxoethyl)-1H-1,2,4-triazole-3-carbonitrile] | 100 to 1000 | 100 to 1000
Cn1cc(-c2ccc3c(c2)CN(C(=O)Cn2cnc(C#N)n2)C3)c(C(F)(F)F)n1 [Example 25, 1-(2-(5-(1-methyl-3-(trifluoromethyl)-1H-pyrazol-4-yl)isoindolin-2-yl)-2-oxoethyl)-1H-1,2,4-triazole-3-carbonitrile] | 100 to 1000 | 100 to 1000
N#Cc1ncn(CC(=O)N2Cc3ccc(-c4ccc(F)nc4C(F)(F)F)cc3C2)n1 [Example 26, 1-(2-(5-(6-fluoro-2-(trifluoromethyl)pyridin-3-yl)isoindolin-2-yl)-2-oxoethyl)-1H-1,2,4-triazole-3-carbonitrile] | 100 to 1000 | < 100
COCCOc1cc(F)ccc1-c1ccc2c(c1)CN(C(=O)Cn1cnc(C#N)n1)C2 [Example 39, 1-(2-(5-(4-fluoro-2-(2-methoxyethoxy)phenyl)isoindolin-2-yl)-2-oxoethyl)-1H-1,2,4-triazole-3-carbonitrile] | 100 to 1000 | ≥ 1000
N#Cc1ncn(CC(=O)N2Cc3ccc(-c4ccccc4OC(F)(F)F)cc3C2)n1 [Example 40, 1-(2-oxo-2-(5-(2-(trifluoromethoxy)phenyl)isoindolin-2-yl)ethyl)-1H-1,2,4-triazole-3-carbonitrile] | 100 to 1000 | 100 to 1000
N#Cc1ncn(CC(=O)N2Cc3ccc(-c4ccc(C(F)(F)F)cc4Cl)cc3C2)n1 [Example 42, 1-(2-(5-(2-chloro-4-(trifluoromethyl)phenyl)isoindolin-2-yl)-2-oxoethyl)-1H-1,2,4-triazole-3-carbonitrile] | 100 to 1000 | ≥ 1000
N#Cc1ncn(CC(=O)N2Cc3ccc(-c4cccc(C#N)c4F)cc3C2)n1 [Example 44, 1-(2-(5-(3-cyano-2-fluorophenyl)isoindolin-2-yl)-2-oxoethyl)-1H-1,2,4-triazole-3-carbonitrile] | 100 to 1000 | 100 to 1000
Cn1nc(C(F)(F)F)cc1-c1ccc2c(c1)CN(C(=O)Cn1cnc(C#N)n1)C2 [Example 48, 1-(2-(5-(1-methyl-3-(trifluoromethyl)-1H-pyrazol-5-yl)isoindolin-2-yl)-2-oxoethyl)-1H-1,2,4-triazole-3-carbonitrile] | 100 to 1000 | 100 to 1000
CC(=O)c1ccccc1-c1ccc2c(c1)CN(C(=O)Cn1cnc(C#N)n1)C2 [Example 50, 1-(2-(5-(2-acetylphenyl)isoindolin-2-yl)-2-oxoethyl)-1H-1,2,4-triazole-3-carbonitrile] | 100 to 1000 | 100 to 1000
COc1cc(F)ccc1-c1ccc2c(c1)CN(C(=O)Cn1cnc(C#N)n1)C2 [Example 51, 1-(2-(5-(4-fluoro-2-methoxyphenyl)isoindolin-2-yl)-2-oxoethyl)-1H-1,2,4-triazole-3-carbonitrile] | 100 to 1000 | 100 to 1000
COc1ccc(Cl)cc1-c1ccc2c(c1)CN(C(=O)Cn1cnc(C#N)n1)C2 [Example 52, 1-(2-(5-(5-chloro-2-methoxyphenyl)isoindolin-2-yl)-2-oxoethyl)-1H-1,2,4-triazole-3-carbonitrile] | 100 to 1000 | 100 to 1000

From patent US20220106296A1, “CYANOTRIAZOLE COMPOUNDS AND USES THEREOF” (Novartis AG, priority 2018, published 2022)
